Reference: patent publication US10011573B2, “Human androgen receptor DNA-binding domain (DBD) compounds as therapeutics and methods for their use” (The University of British Columbia, priority 2014, dated 2018)

Biological target: T1, AR binding to PSA and FKBP5 enhancer (Homo sapiens, UniProt P10275, T878A)
T1 construct: endogenous in cells; host or cells: LNCaP (LN-ARR2PB-eGFP reporter line for A1; parental LNCaP for ChIP)
Experiment: Chromatin immunoprecipitation (ChIP) in LNCaP cells
Assay type: cell-based
Settings: R1881, 24 h

T1 sequence (P10275 whole entry T878A): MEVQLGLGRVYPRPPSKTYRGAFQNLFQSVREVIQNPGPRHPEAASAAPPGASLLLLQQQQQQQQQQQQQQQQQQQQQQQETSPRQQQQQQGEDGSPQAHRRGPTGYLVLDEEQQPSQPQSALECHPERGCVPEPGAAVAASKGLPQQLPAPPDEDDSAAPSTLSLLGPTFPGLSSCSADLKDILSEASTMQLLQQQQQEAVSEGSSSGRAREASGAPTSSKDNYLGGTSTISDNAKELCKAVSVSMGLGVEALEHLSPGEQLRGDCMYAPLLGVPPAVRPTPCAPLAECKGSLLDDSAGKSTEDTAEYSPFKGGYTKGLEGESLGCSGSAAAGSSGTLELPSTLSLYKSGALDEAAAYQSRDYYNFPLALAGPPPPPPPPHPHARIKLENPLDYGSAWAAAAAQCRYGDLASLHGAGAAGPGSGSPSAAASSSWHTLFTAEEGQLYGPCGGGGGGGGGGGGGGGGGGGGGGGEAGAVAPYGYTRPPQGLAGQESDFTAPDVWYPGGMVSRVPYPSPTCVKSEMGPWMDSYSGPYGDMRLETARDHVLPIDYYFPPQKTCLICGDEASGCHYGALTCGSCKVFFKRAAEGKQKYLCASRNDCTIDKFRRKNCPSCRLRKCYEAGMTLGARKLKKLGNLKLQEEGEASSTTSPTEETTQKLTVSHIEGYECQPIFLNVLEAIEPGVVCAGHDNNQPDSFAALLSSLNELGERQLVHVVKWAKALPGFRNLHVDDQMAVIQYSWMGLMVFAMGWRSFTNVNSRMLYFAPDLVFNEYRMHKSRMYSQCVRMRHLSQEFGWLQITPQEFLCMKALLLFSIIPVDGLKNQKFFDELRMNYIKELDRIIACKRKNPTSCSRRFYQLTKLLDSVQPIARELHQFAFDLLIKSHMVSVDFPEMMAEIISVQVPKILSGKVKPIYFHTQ

Brc1ncn(-c2csc(N3CCOCC3)n2)c1Br [Compound 14449]
AR pulldown of the PSA and FKBP5 enhancer: reduced AR pulldown
